From PubChem BioAssay AID330 (DTP/NCI, 2004)
Values joined by “and” are separate entries in the source; they are usually repeats but may differ in a detail not shown here. Equal values may be shown once. Toxic doses and inconclusive results are not listed. How the source made its calls: active means survival T/C of 150% or more; inactive means T/C below 125% in these data.

Tested on: P388 leukemia ip, CD2F1 mice, survival T/C
Experiment: NCI In Vivo Anticancer Drug Screen. Data for tumor model P388 Leukemia (intraperitoneal) in CD2F1 (CDF1) mice
Conditions: endpoint: median survival time, higher = longer survival
Method in brief: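 Mice carrying the transplanted tumor received test compound or vehicle. Survival was recorded in each group, and the value is the treated-group measurement divided by that of the vehicle-treated control group.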

[1] = dose: 50.0 mg/kg/injection, schedule: Q01DX009 (ip), vehicle: saline with Tween-80
[2] = dose: 100.0 mg/kg/injection, schedule: Q01DX009 (ip), vehicle: saline with Tween-80
[3] = dose: 100.0 mg/kg/injection, schedule: Q01DX009 (ip), vehicle: saline
[4] = dose: 200.0 mg/kg/injection, schedule: Q01DX009 (ip), vehicle: saline with Tween-80
[5] = dose: 200.0 mg/kg/injection, schedule: Q01DX009 (ip), vehicle: saline
[6] = dose: 60.0 mg/kg/injection, schedule: Q01DX005 (ip), vehicle: saline with Tween-80
[7] = dose: 120.0 mg/kg/injection, schedule: Q01DX005 (ip), vehicle: saline with Tween-80
[8] = dose: 25.0 mg/kg/injection, schedule: Q01DX009 (ip), vehicle: saline
[9] = dose: 25.0 mg/kg/injection, schedule: Q04DX002 (ip), vehicle: saline with Tween-80
[10] = dose: 50.0 mg/kg/injection, schedule: Q04DX002 (ip), vehicle: saline with Tween-80
[11] = dose: 100.0 mg/kg/injection, schedule: Q04DX002 (ip), vehicle: saline with Tween-80
[12] = dose: 50.0 mg/kg/injection, schedule: Q01DX009 (ip), vehicle: saline
[13] = dose: 50.0 mg/kg/injection, schedule: Q01DX005 (ip), vehicle: Klucel (hydroxypropylcellulose) (HPC)
[14] = dose: 100.0 mg/kg/injection, schedule: Q01DX005 (ip), vehicle: Klucel (hydroxypropylcellulose) (HPC)
[15] = dose: 200.0 mg/kg/injection, schedule: Q01DX005 (ip), vehicle: Klucel (hydroxypropylcellulose) (HPC)
[16] = dose: 50.0 mg/kg/injection, schedule: Q01DX009 (ip), vehicle: Klucel (hydroxypropylcellulose) (HPC)
[17] = dose: 100.0 mg/kg/injection, schedule: Q01DX009 (ip), vehicle: Klucel (hydroxypropylcellulose) (HPC)
[18] = dose: 200.0 mg/kg/injection, schedule: Q01DX009 (ip), vehicle: Klucel (hydroxypropylcellulose) (HPC)
[19] = dose: 50.0 mg/kg/injection, schedule: Q01DX005 (ip), vehicle: saline with Tween-80
[20] = dose: 100.0 mg/kg/injection, schedule: Q01DX005 (ip), vehicle: saline with Tween-80
[21] = dose: 200.0 mg/kg/injection, schedule: Q01DX005 (ip), vehicle: saline with Tween-80

Measured: T/C

CCCCCCCCSP(SCCCCCCCC)SCCCCCCCC
inactive: [1] 113 % of control | [2] 106 % of control | [3] 96 % of control | [4] 103 % of control | [5] 102 % of control and 91 % of control

O=C(C[P+](c1ccccc1)(c1ccccc1)c1ccccc1)c1ccccc1
inactive: [6] 105 % of control | [7] 108 % of control | dose: 240.0 mg/kg/injection, schedule: Q01DX005 (ip), vehicle: saline with Tween-80 96 % of control

O=c1cccccc1O
inactive: dose: 12.5 mg/kg/injection, schedule: Q01DX009 (ip), vehicle: saline 105 % of control and 107 % of control | [8] 100 % of control

C=C1C(=O)OC2C1CCC(C)C1C=CC(=O)C12C (centres undefined)
inactive: [9] 115 % of control | [10] 114 % of control | [11] 119 % of control

CC(Cl)CN(Cc1cc(O)c(CN(CC(C)Cl)CC(C)Cl)cc1O)CC(C)Cl (centres undefined)
inactive: dose: 200.0 mg/kg/injection, schedule: Q04DX003 (ip), vehicle: Klucel (hydroxypropylcellulose) (HPC) 118 % of control

CN=C(N)N/N=C(\C)c1ccc2c(ccc3ccccc32)c1
inactive: dose: 6.25 mg/kg/injection, schedule: Q04DX002 (ip), vehicle: saline with Tween-80 105 % of control and 108 % of control | dose: 12.5 mg/kg/injection, schedule: Q04DX002 (ip), vehicle: saline with Tween-80 104 % of control and 107 % of control | [9] 122 % of control | [10] 123 % of control | [11] 123 % of control | dose: 200.0 mg/kg/injection, schedule: Q04DX002 (ip), vehicle: saline with Tween-80 107 % of control

CC(C)(C)C(=O)CC(Cc1nccc2ccccc12)c1ccco1 (centres undefined)
inactive: [1] 113 % of control | [2] 106 % of control | [4] 97 % of control

FC(F)(F)c1ccccc1N=Cc1cccs1
inactive: [12] 113 % of control | [3] 103 % of control | [5] 104 % of control

Nc1[nH]c(=S)[nH]c(=O)c1N=Cc1ccc(Cl)c(Cl)c1
inactive: dose: 50.0 mg/kg/injection, schedule: Q01DX001 (ip), vehicle: Klucel (hydroxypropylcellulose) (HPC) 100 % of control | dose: 100.0 mg/kg/injection, schedule: Q01DX001 (ip), vehicle: Klucel (hydroxypropylcellulose) (HPC) 100 % of control and 102 % of control and 114 % of control | dose: 200.0 mg/kg/injection, schedule: Q01DX001 (ip), vehicle: Klucel (hydroxypropylcellulose) (HPC) 103 % of control (2×) and 116 % of control | dose: 400.0 mg/kg/injection, schedule: Q01DX001 (ip), vehicle: Klucel (hydroxypropylcellulose) (HPC) 107 % of control and 110 % of control

CC(=O)N(O)C1CCCCC1
inactive: [1] 101 % of control | [12] 112 % of control | [2] 101 % of control | [3] 97 % of control | [4] 103 % of control | [5] 100 % of control

Cc1cc(C2(c3cc(C)c(O)c(CN(CC(=O)O)CC(=O)O)c3)OC(=O)c3ccccc32)cc(CN(CC(=O)O)CC(=O)O)c1O
inactive: [1] 100 % of control | [2] 100 % of control | [4] 97 % of control

O=C(/C=N/Nc1ccccc1)Nc1ccccc1C(=O)O
inactive: [13] 102 % of control | [14] 105 % of control | [15] 93 % of control

O=C1Nc2ccccc2C(O)(c2ccccc2)N1Cc1ccccc1 (centres undefined)
inactive: dose: 6.25 mg/kg/injection, schedule: Q01DX009 (ip), vehicle: saline with Tween-80 91 % of control | dose: 12.5 mg/kg/injection, schedule: Q01DX009 (ip), vehicle: saline with Tween-80 100 % of control | dose: 25.0 mg/kg/injection, schedule: Q01DX009 (ip), vehicle: saline with Tween-80 88 % of control | [5] 87 % of control

COC(=O)c1ccccc1NC(CCN1CCN(CCC(=NC(C)(C)C)Nc2ccccc2C(=O)OC)CC1)=NC(C)(C)C
inactive: [16] 93 % of control | [17] 96 % of control | [18] 92 % of control

C#CC(C)(O)C(C)(C)C (centres undefined)
inactive: [8] 88 % of control | [12] 98 % of control | [3] 98 % of control

COC(=O)C1C(C(=O)OC)C2N(c3ccccc3)C=NN2C1C(=O)c1ccccc1 (centres undefined)
inactive: [19] 96 % of control | [20] 103 % of control | [21] 93 % of control

C[Si]1(C)O[Si](C)(C)O[Si](C)(C)O[Si](C)(C)O1
inactive: [13] 100 % of control | [14] 97 % of control | [15] 97 % of control

COc1ccc(C(Nc2ccccn2)c2cc(C(C)(C)C)c(O)c(C(C)(C)C)c2)cc1 (centres undefined)
inactive: [19] 88 % of control | [20] 91 % of control | [21] 95 % of control

COc1cc2c3c(c1)-c1c(ccc(OC)c1O)CC3N(C)CC2 (centres undefined)
inactive: dose: 6.25 mg/kg/injection, schedule: Q04DX003 (ip), vehicle: DMSO 101 % of control | dose: 12.5 mg/kg/injection, schedule: Q04DX003 (ip), vehicle: DMSO 101 % of control | dose: 25.0 mg/kg/injection, schedule: Q04DX003 (ip), vehicle: DMSO 100 % of control | dose: 50.0 mg/kg/injection, schedule: Q04DX003 (ip), vehicle: DMSO 100 % of control

CCOC(=O)/C(C#N)=C/P(=O)(OCC)OCC
inactive: dose: 3.12 mg/kg/injection, schedule: Q04DX003 (ip), vehicle: Klucel (hydroxypropylcellulose) (HPC) 101 % of control | dose: 6.25 mg/kg/injection, schedule: Q04DX003 (ip), vehicle: Klucel (hydroxypropylcellulose) (HPC) 100 % of control | dose: 12.5 mg/kg/injection, schedule: Q04DX003 (ip), vehicle: Klucel (hydroxypropylcellulose) (HPC) 99 % of control

O=[N+]([O-])c1cc(Br)c2c(c1)CCN2
inactive: dose: 25.0 mg/kg/injection, schedule: Q01DX009 (ip), vehicle: distilled water + Tween-80 98 % of control | dose: 50.0 mg/kg/injection, schedule: Q01DX009 (ip), vehicle: distilled water + Tween-80 100 % of control | dose: 100.0 mg/kg/injection, schedule: Q01DX009 (ip), vehicle: distilled water + Tween-80 97 % of control | dose: 200.0 mg/kg/injection, schedule: Q01DX009 (ip), vehicle: distilled water + Tween-80 103 % of control | dose: 400.0 mg/kg/injection, schedule: Q01DX009 (ip), vehicle: distilled water + Tween-80 116 % of control

Nc1nc(F)nc2c1nnn2C1OC(CO)C(O)C1O (centres undefined)
inactive: dose: 12.5 mg/kg/injection, schedule: Q01DX001 (ip), vehicle: saline 112 % of control | dose: 25.0 mg/kg/injection, schedule: Q01DX001 (ip), vehicle: saline 109 % of control | dose: 50.0 mg/kg/injection, schedule: Q01DX001 (ip), vehicle: saline 109 % of control | dose: 50.0 mg/kg/injection, schedule: Q01DX005 (ip), vehicle: saline 121 % of control | dose: 100.0 mg/kg/injection, schedule: Q01DX001 (ip), vehicle: saline 104 % of control | dose: 100.0 mg/kg/injection, schedule: Q01DX005 (ip), vehicle: saline 114 % of control

O=S(=O)(c1ccc(NC(=S)NC23CC4CC(CC(C4)C2)C3)cc1)N1CCCCC1
inactive: [16] 88 % of control | [17] 93 % of control | [18] 94 % of control

CCOP(=O)(OCC)C(C#N)OC(C)(C)C (centres undefined)
inactive: [6] 109 % of control | [7] 93 % of control
